The source of these data is EP0381141B1, “Novel aryl- or heteroaryl-1-alkyl-pyrrole-2-carboxylic acid compounds useful in treating interleukin-1 mediated conditions” (MERRELL DOW PHARMACEUTICALS INC., priority 1989, dated 1990).

The assay concerns Interleukin-1 Secretion by Macrophages. Kind of assay: Ex vivo inhibition of interleukin-1 secretion by macrophages (LPS-stimulated peritoneal cells from orally dosed mice; IL-1 measured by thymocyte H3-thymidine incorporation). Conditions: p.o. 3 times (40, 24 and 16 hours prior to sacrifice); for Interleukin-1 units/ml Mean ± Sem(n): 100 mg/kg, macrophage culture supernatant, unit = reciprocal of the dilution required to give 50% of maximal H3-thymidine incorporation; for inhibition at 100 mg/kg: Mus musculus, Macrophage, po, versus control group. It is filed as in vivo. As to the method: The interleukin-1 inhibitory properties of the compounds of this invention can readily be determined by standard and well known procedures.
Peritoneal cells from mice which had been orally dosed with 100 mg/kg of test compound 40, 24 and 16 hours prior to sacrifice, were collected by lavage, pooled and washed by centrifugation. The cells were resuspended in RPMI-1640 medium containing antibiotics, and plated. After 1 hour of incubation at 37°C, non-adherent cells were removed, and RPMI, with or without lipopolysaccharide, was added to each well. The presence of lipopolysaccharide will induce interleukin-1 secretion by macrophages. After incubation for 6 hours, the culture supernatant was collected, filtered and stored until assayed.
Mouse thymocytes were suspended in RPMI enriched with fetal bovine serum and 2-mercaptoethanol. Aliquots of cell suspension were incubated with an equal volume of dilutions of macrophage culture supernatant in the presence of a suboptimal amount of phytohemagglutinin for 72 hours in flat-bottom plates. Microcultures were pulsed with H³-thymidine for the last 16 hours and were harvested on glass fiber filters. H₃-thymidine will be incorporated into the DNA of actively proliferating cells. The radioactivity was determined by liquid scintillation counting, and interleukin-1 activity was expressed in units defined as the reciprocal of the dilution required to give 50% of maximal H³-thymidine incorporation.
Compounds were administered at a dosage of 100 mg/kg, p.o. 3 times (40, 24 and 16 hours prior to sacrifice). Compound 1: 1-(2-furanylmethyl)-1H-pyrrole-2-carboxylic acid Compound 2: 1-(phenylmethyl)-1Hpyrrole-2 -carboxylic acid Compound 3: 1-([1,1'-biphenyl]-4-ylmethyl)-1H -pyrrole-2-carboxylic acid

The structures appear in SMILES notation.

Turning to `O=C(O)c1cccn1Cc1ccco1` [Compound 1, 1-(2-furanylmethyl)-1H-pyrrole-2-carboxylic acid], the “Interleukin-1 units/ml Mean ± Sem(n)” value is 10.2 +/- 3.4 units/ml and testing at 100 mg/kg gave an inhibition of 93.2%.
Consider `O=C(O)c1cccn1Cc1ccccc1` [Compound 2, 1-(phenylmethyl)-1H-pyrrole-2-carboxylic acid], for which the “Interleukin-1 units/ml Mean ± Sem(n)” value is reported as 171.3 +/- 7.9 units/ml and the inhibition at 100 mg/kg came out at 67.4%.
For `O=C(O)c1cccn1Cc1ccc(-c2ccccc2)cc1` [Compound 3, 1-([1,1'-Biphenyl]-4-ylmethyl)-1H-Pyrrole-2-Carboxylic Acid], the “Interleukin-1 units/ml Mean ± Sem(n)” value is given as 26.6 +/- 3.9 units/ml and testing at 100 mg/kg gave an inhibition of 94.9%.
